Key:
Assay in all cases: relative viability (nuclei count vs DMSO), 5 days (fraction); higher = more cells survive
Dasatinib + Trametinib = compound: Cc1nc(Nc2ncc(C(=O)Nc3c(C)cccc3Cl)s2)cc(N2CCN(CCO)CC2)n1 [Dasatinib] + CC(=O)Nc1cccc(-n2c(=O)n(C3CC3)c(=O)c3c(Nc4ccc(I)cc4F)n(C)c(=O)c(C)c32)c1 [Trametinib] (partner 0.02 µM)
Outline: (§1)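 Dosing by pin tool came one day after lung cancer cell lines were seeded in 1536-well plates, using either one drug or a fixed anchor-drug dose plus five library-drug doses (not always all listed) in √10 steps. After 5 days, nuclei were counted on 4× images. Relative viability is treated-well nuclei count divided by vehicle-well nuclei count, and values are medians of duplicate plates.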

XMD13-2 + Pictilisib = compound: C1CC1C(=O)NC2=NNC3=C2C=CC(=C3)C4=CC(=CC=C4)C(=O)NC5CC5 [XMD13-2] + CS(=O)(=O)N1CCN(Cc2cc3nc(-c4cccc5[nH]ncc45)nc(N4CCOCC4)c3s2)CC1 [Pictilisib] (partner 1 µM)
Outline: as §1

XMD13-2 + Bortezomib = compound: C1CC1C(=O)NC2=NNC3=C2C=CC(=C3)C4=CC(=CC=C4)C(=O)NC5CC5 [XMD13-2] + CC(C)C[C@H](NC(=O)[C@H](Cc1ccccc1)NC(=O)c1cnccn1)B(O)O [Bortezomib] (partner 0.002 µM)
Outline: as §1

XMD13-2 + Pemetrexed = compound: C1CC1C(=O)NC2=NNC3=C2C=CC(=C3)C4=CC(=CC=C4)C(=O)NC5CC5 [XMD13-2] + Nc1nc2[nH]cc(CCc3ccc(C(=O)N[C@@H](CCC(=O)O)C(=O)O)cc3)c2c(=O)[nH]1 [Pemetrexed] (partner 0.2 µM)
Outline: as §1

For UMC-11, the relative viability (Dasatinib + Trametinib; first compound 0.005 µM) was 0.675, the relative viability (Dasatinib + Trametinib; first compound 0.01581 µM) was 0.63 and the relative viability (Dasatinib + Trametinib; first compound 0.05 µM) was 0.631. For the same cell line, the relative viability (Dasatinib + Trametinib; first compound 0.1581 µM) was 0.358, the relative viability (Dasatinib + Trametinib; first compound 0.5 µM) was 0.317 and the relative viability (XMD13-2 + Pictilisib; first compound 0.05 µM) was 0.943. The relative viability (XMD13-2 + Pictilisib; first compound 0.1581 µM) was 0.8, the relative viability (XMD13-2 + Pictilisib; first compound 0.5 µM) was 0.704 and the relative viability (XMD13-2 + Pictilisib; first compound 1.581 µM) was 0.803. The relative viability (XMD13-2 + Pictilisib; first compound 5 µM) was 0.71, the relative viability (XMD13-2 + Bortezomib; first compound 0.05 µM) was 0.737 and the relative viability (XMD13-2 + Bortezomib; first compound 0.1581 µM) was 0.896. The relative viability (XMD13-2 + Bortezomib; first compound 0.5 µM) was 0.825, the relative viability (XMD13-2 + Bortezomib; first compound 1.581 µM) was 0.587 and the relative viability (XMD13-2 + Bortezomib; first compound 5 µM) was 0.981. For the same cell line, the relative viability (XMD13-2 + Pemetrexed; first compound 0.05 µM) was 0.914, the relative viability (XMD13-2 + Pemetrexed; first compound 0.1581 µM) was 0.761 and the relative viability (XMD13-2 + Pemetrexed; first compound 0.5 µM) was 0.791. It also gave a relative viability (XMD13-2 + Pemetrexed; first compound 1.581 µM) of 0.845 and a relative viability (XMD13-2 + Pemetrexed; first compound 5 µM) of 0.772.
